Test results published in patent US20080255252A1, “Infectious Aetiology of Prostatic Disease and Methods to Identify Causative Agents” (Tissugen Pty. Ltd., priority 2004, published 2008).

Test system: P. acnes Group 1, 2 and 3 isolates
Test: Growth of P. acnes isolates on semi-selective Brain Heart Infusion agar containing antibiotics
Assay type: cell-based, Propionibacterium acnes
Method: Brain Heart Infusion Agar (Oxoid Australia Ltd) was prepared containing 0.5% Tween 80 and adjusted to a pH of 6.0 using hydrochloric acid prior to autoclaving. […] Both antibiotics were prepared freshly immediately prior to use, and the agar plates were incubated at 37° C. for 24 hrs to ensure sterility then stored at 4° C. and used within 3 weeks of preparation.
Inclusion of gentamicin as a selective agent and Tween 80 as a growth stimulant for P. acnes was previously discussed by Kishishita (1980).

Substance: gentamicin
- growth of some strains of P. acnes Groups 2 and 3 (at 6 μg/mL furazolidone and 4 μg/mL gentamicin in the semi-selective medium): noticeable growth inhibition
- maximal concentration that allowed reasonable growth (semi-selective agar, after 7 days of anaerobic incubation): 4 µg/mL
